Data on 20 compounds can be found in patent US5652271A, “Therapeutic agents” (Knoll Aktiengesellschaft, priority 1993, dated 1997).

Counter-ions that a name gives are not always drawn. Like-named read-outs stand apart in the source and are kept apart here.

For orientation: ED50 means the dose at which the effect has come halfway, by size or by number of responders. By Ki is commonly meant the dissociation constant of the complex between target and ligand, obtained from inhibition or displacement.

Test [1] concerns ptosis (eye closure) induced by reserpine. The test is described as follows: prevention of ptosis (eye closure) induced by reserpine in rats. It is filed as in vivo, rat (male, Charles River CD strain). An excerpt: Male rats of the Charles River CD strain weighing between 140 and 180 g were randomly separated into five rats in each cage and supplied with food and water ad libitum. Eighteen hours prior to initiation of the test four of the five rats were marked with a pen such that each rat was individually identifiable; food was then withdrawn. The following morning, two hours before the test, the rats were weighed and a semi-randomised code was used to allocate treatments to rats. The test commenced by orally administering either:
The degree of ptosis was scored […] later using the following observer rating system: 0=eye fully open, 1=eye 1/4closed, 2=eye 1/2closed, 3=eye 3/4closed, 4=eye fully closed. A mean ptosis score was then calculated for all identically treated rats usually comprising a group of eight rats. […] It is widely understoodby those skilled in the art that this test is indicative of compounds having antidepressant activity in humans.

A further test concerns the target dopamine reuptake sites (Rattus norvegicus, UniProt P23977). The test is described as follows: inhibition of [3H]dopamine uptake in vitro in rat striatal synaptosomes. It is filed as biochemical, rat (male Charles River). The following applies: [3H]dopamine (2.5 nM) uptake, 5 minutes at 37° C.; calculated from IC50; means ± sem of three independent determinations. Here is the method: Striatal tissue from the brains of male Charles River rats weighing 150-250 g was homogenised in ice-cold 0.32M sucrose (1:10 w/v) using a motor driven teflon pestle (difference in diameter between mortar and pestle 0.5 mm). Nuclei and cell debris were removed by centrifugation at 1,500 g at 4° C. for 10 minutes. The pellet (P1) was discarded and the supernatant centrifuged at 18,000 g at 4° C. for 10 minutes. The crude synaptosomal pellet (P2) was resuspended in Krebs-Henseleit buffer (equivalent to 4.2 mg wet weight of tissue/ml).
Crude synaptosomes were incubated in a shaking water bath at 37° C. for 15 minutes. Aliquots (150 μl; equivalent to 0.625 mg wet weight of tissue/tube) were then added to tubes containing 275 μl of Krebs-Henseleit buffer and 50 μl of Krebs-Henseleit buffer (total uptake) or 50 μl of test compound (10 concentrations ranging from 10-11-10-4M) or 50 μl of GBR 12909 (10^-5M; non-specific uptake). Uptake was initiated by the addition of 25 μl of freshly prepared [3H]dopamine(2.5 nM), followed by vortexing and was continued for 5 minutes at 37° C. in the shaking water bath.
Uptake was terminated by filtration under vacuum through Skatron 11735 filters using a Skatron cell harvester. Filters were than washed with 8 ml ice-cold saline. The scored filter paper discs were punched into vials, scintillation fluid added and radioactivity determinedby liquid scintillation counting.
The percentage inhibition of specific uptake of the tritiated ligand was calculated for each concentration of test compound. Inhibition curves were then produced. The concentration of compounds which gave 50% inhibition of specific uptake (IC50) was obtained from the curve. The inhibition constant (Ki) was then calculated using the formula [formula] in which [L] is the concentration of tritiated ligand used and Km is the affinity of the uptake site for the ligand. The Ki values for compounds for formula I and III are given in Table 1 as the means ± sem of three independent determinations.

[2] abbreviates: Rattus norvegicus, po, 3 h, dose causing 50% prevention of reserpine-induced ptosis, test compound oral, reserpine 0.75 mg/kg intravenous, scored three hours later, read-out: ED50.

Sequence of dopamine reuptake sites (P23977 whole entry): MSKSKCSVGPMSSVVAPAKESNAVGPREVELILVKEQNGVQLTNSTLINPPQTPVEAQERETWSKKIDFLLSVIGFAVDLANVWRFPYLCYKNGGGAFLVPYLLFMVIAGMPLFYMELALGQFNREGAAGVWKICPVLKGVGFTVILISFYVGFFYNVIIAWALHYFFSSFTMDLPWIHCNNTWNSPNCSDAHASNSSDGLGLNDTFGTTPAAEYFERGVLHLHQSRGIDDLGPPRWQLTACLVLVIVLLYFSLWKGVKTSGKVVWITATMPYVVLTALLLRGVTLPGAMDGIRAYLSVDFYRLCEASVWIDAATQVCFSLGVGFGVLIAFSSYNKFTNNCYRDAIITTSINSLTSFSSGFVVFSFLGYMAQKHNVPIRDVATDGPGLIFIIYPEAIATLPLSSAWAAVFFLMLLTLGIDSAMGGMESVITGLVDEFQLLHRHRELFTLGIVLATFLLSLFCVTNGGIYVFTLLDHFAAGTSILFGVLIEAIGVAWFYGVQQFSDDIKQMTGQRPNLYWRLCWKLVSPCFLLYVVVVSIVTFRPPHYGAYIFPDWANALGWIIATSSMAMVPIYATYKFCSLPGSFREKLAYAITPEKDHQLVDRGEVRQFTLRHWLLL

`CN(C)CCCSCC(O)C1(c2ccc(Cl)c(Cl)c2)CCC1.O=C(O)CC(O)(CC(=O)O)C(=O)O` (single isomer, unassigned; (+)) [Example 17, (+)-1-[1-(3,4-dichlorophenyl)cyclobutyl]-2-[3-(dimethylamino)-propylthio]ethanol citrate] showed a 50% effective dose (ED50) in test [1] (dose causing 50% prevention of reserpine-induced ptosis, test compound oral, reserpine 0.75 mg/kg intravenous, scored three hours later, citrate) of 2.5 mg/kg. In the case of `CN(C)CCCSCC(O)C1(c2ccc(Cl)c(Cl)c2)CCC1.O=C(O)CC(O)(CC(=O)O)C(=O)O` (single isomer, unassigned; (-)) [Example 16, (-)-1-[1-(3,4-dichlorophenyl)cyclobutyl]-2-[3-(dimethylamino)propylthio]ethanol citrate], in test [1] (setting [2]), the ED50 came to 2.2 mg/kg. For the compound `CN(C)CCSCC(=O)C1(c2ccc(Cl)c(Cl)c2)CCC1.Cl` [Example 1, 1-[1-(3,4-dichlorophenyl)cyclobutyl]-2-[2-(dimethyl-amino)ethylthio]ethanone hydrochloride], in test [1] (setting [2]), the ED50 was 8.5 mg/kg.

In the case of `CN(C)CC[S+]([O-])CC(=O)C1(c2ccc(Cl)c(Cl)c2)CCC1.Cl` (stereo not drawn) [Example 2, 1-[1-(3,4-dichlorophenyl)cyclobutyl]-2-[2-(dimethylamino)ethylsulphinyl]ethanone hydrochloride], in test [1] (setting [2]), the ED50 is 7.7 mg/kg. On to `CN(C)CCS(=O)(=O)CC(=O)C1(c2ccc(Cl)c(Cl)c2)CCC1.Cl` [Example 3, 1-[1-(3,4-dichlorophenyl)cyclobutyl]-2-[2-(dimethylamino)ethylsulphonyl]ethanone hydrochloride], for which the ED50 in test [1] (setting [2]) was 5.9 mg/kg. For `CCN(CC)CCSCC(=O)C1(c2ccc(Cl)c(Cl)c2)CCC1` [Example 4, 1-[1-(3,4-dichlorophenyl)cyclobutyl]-2-[2-(diethylamino)ethylthio]ethanonehydrochloride], the median effective dose (ED50) in test [1] (setting [2]) was 9.7 mg/kg.

As to `CN(CCSCC(=O)C1(c2ccc(Cl)c(Cl)c2)CCC1)Cc1ccccc1.Cl` [Example 5, 2-[2-(N-benzyl-N-methylamino)ethylthio]-1-[1-(3,4-dichlorophenyl)cyclobutyl]ethanone hydrochloride], in test [1] (setting [2]), the ED50 came to 16.4 mg/kg. Still for that read-out and setting: the same measure for `CN(C)CCSCC(O)C1(c2ccc(Cl)c(Cl)c2)CCC1.Cl` (stereo not drawn) [Example 6, 1-[1-(3,4-dichlorophenyl)cyclobutyl]-2-[2-(dimethyl-amino)ethylthio]ethanol hydrochloride]: 5.7 mg/kg. Turning to `CN(C)CCCSCC(=O)C1(c2ccc(Cl)c(Cl)c2)CCC1.Cl` [Example 7, 1-[1-(3,4-dichlorophenyl)-cyclobutyl]-2-[3-(dimethylamino)propylthio]ethanone hydrochloride], the ED50 in test [1] (setting [2]) was found to be 4.2 mg/kg. The Ki on dopamine reuptake sites was 5 ± 0.5 nM. For `CN(C)CCCS(=O)(=O)CC(=O)C1(c2ccc(Cl)c(Cl)c2)CCC1.Cl` [Example 8, 1-[1-(3,4-dichlorophenyl)cyclobutyl]-2-[3-(dimethylamino)propylsulphonyl]ethanone hydrochloride], in that order: 3.4 mg/kg and 13.4 ± 0.1 nM. For `CN(C)CCCSCC(O)C1(c2ccc(Cl)c(Cl)c2)CCC1` (stereo not drawn) [Example 9, 1-[1-(3,4-dichlorophenyl)cyclobutyl]-2-[3-(dimethylamino)propyl-thio]ethanol], in that order: 4.8 mg/kg and 7.3 ± 1.6 nM. Take `CC(CSCC(=O)C1(c2ccc(Cl)c(Cl)c2)CCC1)CN(C)C` (stereo not drawn) [Example 10, 1-[1-(3,4-dichlorophenyl)cyclobutyl]-2-[3-(dimethylamino)-2-methylpropylthio]ethanone]: the ED50 in test [1] (setting [2]) amounted to 8.7 mg/kg. Also, on dopamine reuptake sites, the Ki is 7.2 ± 1 nM. As to `CN(C)CCSCC(=O)C1(c2ccc3ccccc3c2)CCC1.Cl` [Example 11, 2-[2-(dimethylamino)ethylthio]-1-[1-(2-naphthyl)cyclobutyl]ethanone hydrochloride], the ED50 in test [1] (setting [2]) stood at 24.1 mg/kg. Take `CN(C)CCCSCC(=O)C1(c2cccc(Cl)c2)CCC1.Cl` [Example 12, 1-[1-(3-chlorophenyl)cyclobutyl]-2-[3-(dimethylamino)propylthio]ethanone hydrochloride]: in test [1] (setting [2]), the ED50 turned out to be 23.4 mg/kg.

Turning to `CN(C)CCCCSCC(=O)C1(c2ccc(Cl)c(Cl)c2)CCC1.Cl` [Example 13, 1-[1-(3,4-dichlorophenyl)cyclobutyl]-2-[4-(dimethylamino)-butylthio]ethanone hydrochloride], the ED50 in test [1] (setting [2]) was determined as 5.9 mg/kg. Besides, the Ki on dopamine reuptake sites was 6.5 ± 1 nM. For `CCCN(CCC)CCCSCC(=O)C1(c2ccc(Cl)c(Cl)c2)CCC1` [Example 14, 1-[1-(3,4-dichlorophenyl)cyclobutyl]-2-[3-(dipropylamino)propylthio]ethanone], in that order: 7.3 mg/kg and 13.4 ± 2.1 nM.

As to `CN(C)CCCSCC(=O)C1(c2ccc(Cl)c(Cl)c2)CCC1.O=C(O)/C=C/C(=O)O` [Example 15, 1-[1-(3,4-dichloro-phenyl)cyclobutyl]-2-[3-(dimethylamino)propylthio]ethanone fumarate], the ED50 in test [1] (setting [2]) was 4 mg/kg. In addition, the inhibition constant Ki at dopamine reuptake sites is 3.7 ± 0.4 nM.

`CN(C)CCCSCC(=O)C1(c2ccc(Cl)c(Cl)c2)CCC1.O=C(O)CC(O)(CC(=O)O)C(=O)O` [Example 18, 1-[1-(3,4-dichlorophenyl)cyclobutyl]-2-[3-(dimethylamino)propylthio]ethanone citrate]: in test [1] (Rattus norvegicus, po, 3 h), it took a dose of 4.9 mg/kg to reach the 50% effect level (ED50). Further, the Ki on dopamine reuptake sites was 4.2 ± 0.4 nM. Turning to `CC(CSCC(O)C1(c2ccc(Cl)c(Cl)c2)CCC1)CN(C)C` (stereo not drawn) [Example 19, 1-[1-(3,4-dichlorophenyl)cyclobutyl]-2-[3-(dimethylamino)-2-methylpropylthio]ethanol], the ED50 in test [1] (setting [2]) worked out at 6.9 mg/kg. At dopamine reuptake sites, the Ki is 6.9 ± 0.6 nM.

For `CN(C)CCCSCC(=O)C1(c2ccc(Cl)c(Cl)c2)CCCC1.Cl` [Example 20, 1-[1-(3,4-dichlorophenyl)cyclopentyl]-2-[3-(dimethylamino)propylthio]ethanone hydrochloride], the ED50 in test [1] (setting [2]) was determined as 3.7 mg/kg. The inhibition constant Ki at dopamine reuptake sites is 4.4 ± 0.2 nM.
